Source: BindingDB's records for doi:10.1016/j.bmcl.2008.10.124 (Schering-Plough Research Institute, 2009)

What follows are compounds tested against Genome polyprotein (Hepatitis C virus genotype 1a (isolate H77), UniProt P27958) (assay: Continuous Spectrophotometric Assay). Details: pH 6.5; 30 °C.
Experimental: Proteolytic cleavage of the ester linkage between the Nva (L-norvaline) and the chromophore (PAP) was monitored for change in absorbance at 370 nm. Initial velocities were determined using linear regression and kinetic constants were obtained by fitting the data to the Michaelis-Menten equation.

Chain of Genome polyprotein (P27958 1027-1657 limits assumed): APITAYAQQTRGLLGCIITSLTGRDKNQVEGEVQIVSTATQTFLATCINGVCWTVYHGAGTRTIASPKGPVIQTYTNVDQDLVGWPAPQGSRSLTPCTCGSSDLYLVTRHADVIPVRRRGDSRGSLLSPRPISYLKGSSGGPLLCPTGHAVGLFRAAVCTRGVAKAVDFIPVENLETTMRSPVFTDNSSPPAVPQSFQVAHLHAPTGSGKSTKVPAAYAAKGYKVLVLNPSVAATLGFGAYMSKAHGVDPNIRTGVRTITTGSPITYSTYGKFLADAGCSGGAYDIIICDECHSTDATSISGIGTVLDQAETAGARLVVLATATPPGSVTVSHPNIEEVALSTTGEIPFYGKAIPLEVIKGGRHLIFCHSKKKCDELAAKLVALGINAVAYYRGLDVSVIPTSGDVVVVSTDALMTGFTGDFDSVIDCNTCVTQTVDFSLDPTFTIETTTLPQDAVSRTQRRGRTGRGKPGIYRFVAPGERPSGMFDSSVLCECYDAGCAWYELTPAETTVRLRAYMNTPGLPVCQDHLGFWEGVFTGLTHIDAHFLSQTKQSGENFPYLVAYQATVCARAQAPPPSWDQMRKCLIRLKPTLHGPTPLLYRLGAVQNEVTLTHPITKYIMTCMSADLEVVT

Row | Structure (SMILES) | Ki [nM]
1 | CC[C@H](NC(=O)[C@@H]1[C@@H]2[C@H](CN1C(=O)[C@@H](NC(=O)N[C@H](CN(C)S(C)(=O)=O)C(C)(C)C)C(C)(C)C)C2(C)C)B1O[C@@H]2CC3CC(C3(C)C)[C@]2(C)O1 (stereo partly drawn) [(1R,2S,5S)-3-[(2S)-2-({[(2S)-1-[methane(methyl)sulfonamido]-3,3-dimethylbutan-2-yl]carbamoyl}amino)-3,3-dimethylbutanoyl]-6,6-dimethyl-N-[(1R)-1-[(2S,6R)-2,9,9-trimethyl-3,5-dioxa-4-boratricyclo[6.1.1.0^{2,6}]decan-4-yl]propyl]-3-azabicyclo[3.1.0]hexane-2-carboxamide] | 34
2 | CC[C@H](NC(=O)C1[C@@H]2[C@H](CN1C(=O)[C@@H](NC(=O)NC(C)(C)C)C(C)(C)C)C2(C)C)B1O[C@@H]2CC3CC(C3(C)C)[C@]2(C)O1 (stereo partly drawn) [(1R,5S)-3-[(2S)-2-[(tert-butylcarbamoyl)amino]-3,3-dimethylbutanoyl]-6,6-dimethyl-N-[(1R)-1-[(2S,6R)-2,9,9-trimethyl-3,5-dioxa-4-boratricyclo[6.1.1.0^{2,6}]decan-4-yl]propyl]-3-azabicyclo[3.1.0]hexane-2-carboxamide] | 380
3 | CC(C)(C)NC(=O)N[C@H](C(=O)N1C[C@H]2[C@@H](C1C(=O)N[C@@H](CC1CCC1)B(O)O)C2(C)C)C(C)(C)C (stereo partly drawn) [(1R,5S)-3-[(2S)-2-[(tert-butylcarbamoyl)amino]-3,3-dimethylbutanoyl]-N-[(1R)-2-cyclobutyl-1-(dihydroxyboranyl)ethyl]-6,6-dimethyl-3-azabicyclo[3.1.0]hexane-2-carboxamide] | 10
4 | CC[C@H](NC(=O)[C@@H]1[C@@H]2[C@H](CN1C(=O)[C@@H](NC(=O)NC(C)(C)C)C(C)(C)C)C2(C)C)B1O[C@@H]2CC3CC(C3(C)C)[C@]2(C)O1 (stereo partly drawn) [(1R,2S,5S)-3-[(2S)-2-[(tert-butylcarbamoyl)amino]-3,3-dimethylbutanoyl]-6,6-dimethyl-N-[(1R)-1-[(2S,6R)-2,9,9-trimethyl-3,5-dioxa-4-boratricyclo[6.1.1.0^{2,6}]decan-4-yl]propyl]-3-azabicyclo[3.1.0]hexane-2-carboxamide] | 500
5 | CN(C[C@@H](NC(=O)N[C@H](C(=O)N1C[C@H]2[C@@H]([C@H]1C(=O)N[C@@H](CC1CCC1)B1O[C@@H]3CC4CC(C4(C)C)[C@]3(C)O1)C2(C)C)C(C)(C)C)C(C)(C)C)S(C)(=O)=O (stereo partly drawn) [(1R,2S,5S)-N-[(1R)-2-cyclobutyl-1-[(2S,6R)-2,9,9-trimethyl-3,5-dioxa-4-boratricyclo[6.1.1.0^{2,6}]decan-4-yl]ethyl]-3-[(2S)-2-({[(2S)-1-[methane(methyl)sulfonamido]-3,3-dimethylbutan-2-yl]carbamoyl}amino)-3,3-dimethylbutanoyl]-6,6-dimethyl-3-azabicyclo[3.1.0]hexane-2-carboxamide] | 0.5
6 | CC(C)(C)NC(=O)N[C@H](C(=O)N1C[C@H]2[C@@H](C1C(=O)N[C@@H](CC1CCC1)B1O[C@@H]3CC4CC(C4(C)C)[C@]3(C)O1)C2(C)C)C(C)(C)C (stereo partly drawn) [(1R,5S)-3-[(2S)-2-[(tert-butylcarbamoyl)amino]-3,3-dimethylbutanoyl]-N-[(1R)-2-cyclobutyl-1-[(2S,6R)-2,9,9-trimethyl-3,5-dioxa-4-boratricyclo[6.1.1.0^{2,6}]decan-4-yl]ethyl]-6,6-dimethyl-3-azabicyclo[3.1.0]hexane-2-carboxamide] | 10
